Consider 89 compounds from a melting point compilation (Tetko et al.; mined from patent text by program, amines drawn as free bases though some values may be those of a salt).

Bounds are passed on as bounds.

For `Clc1ccc(Cn2cnc3c(Cl)ncnc32)cc1Cl`, the melting point – broadly, the temperature of the solid-liquid transition – fell in the range of 130 to 133 °C.

`CC(=O)NC(NCC(=O)OCc1ccccc1)C(=O)NCc1ccccc1` (centres undefined) gave a melting point of 133 to 135 °C.

Consider `CS(=O)c1ncc(Br)cn1` (centres undefined), for which the melting point was 90 °C.

Compound `CCOC(=O)C(=O)Nc1ccc(NC(=O)C(=O)OCC)c(C#N)c1` returned a melting point of 140 to 141 °C.

On to `O=[N+]([O-])c1ccc(S(=O)(=O)OS(=O)(=O)c2ccc([N+](=O)[O-])cc2)cc1`, for which the melting point lay within 171 to 172 °C.

Compound `CC(C)OC(=O)c1ccc(OCc2ccccc2)cc1` had a melting point of 62 to 63 °C.

Compound `COc1ccc(-c2nccc(N3CCN(c4c(C)c(C)c5c(c4C)CC(C)(C)O5)CC3)n2)cc1` registered a melting point of 240 to 242 °C.

Compound `CCOC1=C(C)C(=O)C(C)(C)CC1` displayed a melting point of 104 to 106 °C.

With `O=Cc1cc(Oc2ccc(C(F)(F)F)cc2Cl)ccc1[N+](=O)[O-]`, the melting point was found to be 95 °C.

On to `CC(=O)N1CCN(c2c(F)cc3c(=O)c(C(=O)O)cn(C4CC4)c3c2C)CC1C` (centres undefined), for which the melting point lay within 219 to 221 °C.

`O=C1c2ccc(O)cc2C(=O)N1c1ccccc1`: the melting point was in the range of 116 to 118 °C.

The compound `O=C(Nc1ccc(Cl)nc1)c1ccc(-n2ccnc2)c(F)c1` registered a melting point of 210 to 211 °C.

On to `NC(=O)c1ccc(N2CCOCC2)cc1`, for which the melting point is 220 to 221 °C.

`CCCCc1ncc(C(=O)OC)c(=O)[nH]1` returned a melting point of 153 to 155 °C.

Compound `CCSC(=O)c1nc(N)ccc1Oc1nc(OC)cc(OC)n1` showed a melting point of 115 to 118 °C.

`Cc1cnc(C)n1CC(=O)c1ccc(-c2ccc(N3C[C@H](Cn4ccnn4)OC3=O)cc2F)cn1` came in with a melting point of 112 to 115 °C.

Consider `COC(=O)COc1ccc(C(=O)CBr)c2ccccc12`, for which the melting point lay in the range of 99 to 101 °C.

With `O=c1cc(-c2ccccc2)oc2cccc(OCCCCCCI)c12`, the melting point was in the range of 166 to 168 °C.

`CCCCCCOc1cc(C(=O)O)cc([N+](=O)[O-])c1C(=O)c1ccccc1` gave a melting point of 165 to 166 °C.

Compound `Cc1cc(=O)n(-c2cc(C(=O)OC(C)C)c(Cl)cc2F)c(=O)[nH]1` gave a melting point of 134 to 136 °C.

The compound `CCOC1CCC(=O)N1S(=O)(=O)c1ccc(N)cc1` (centres undefined) gave a melting point of 185 to 186 °C.

`O=C(Nc1ccc2ccc(Cl)nc2n1)C1CCC1` gave a melting point of 192 °C.

`COC(=O)c1ncc(C(=O)O)cc1Cl` returned a melting point of 182 to 184 °C.

`CC(=NO)c1cnc2c(NC(=O)c3c(Cl)cccc3Cl)cccc2c1` returned a melting point of 215 to 243 °C.

`Cc1cc(-c2ccccc2)nn1CCN`: the melting point was 131 to 132 °C.

The compound `Nc1nc(Cl)c2ncn(COCCOCCOC(=O)c3ccccc3)c2n1` had a melting point of 111 to 112 °C.

The compound `CC(Cc1ccc(Cl)cc1Cl)NC(=O)c1cn(C)nc1C(F)F` (centres undefined) registered a melting point of 157 °C.

Compound `NCC1(O)c2ccccc2CCc2ccccc21` had a melting point of 147 to 149 °C.

For the compound `O=C(c1cccc(C(F)(F)F)c1F)N1CCN(Cc2cncc(Nc3cc[nH]n3)n2)CC1`, the melting point lay within 160 to 163 °C.

Compound `Nc1ccc(S(=O)c2ccccc2)cc1[N+](=O)[O-]` (centres undefined) showed a melting point of 146 to 147 °C.

In turn, `C1=C(/C=C/c2ccccc2)CCN(Cc2c[nH]c3ncccc23)C1` registered a melting point of 210 to 212 °C.

Regarding `Cc1cc(-c2nc3c(C)cc(Cl)nn3c2-c2ccnc(N)c2)ccc1F`, the melting point is 218 to 219 °C.

As to `CC(C)c1ccc2nc(C(F)(F)F)c(C(=O)Nc3nccs3)c(O)c2c1`, the melting point stood at 262 °C.

In turn, `O=C1c2ccccc2C(=O)N1OS(=O)(=O)c1ccc2ccccc2c1` returned a melting point of 223 to 225 °C.

Compound `Nc1scc2c1C(=O)c1cc(Cl)c(Cl)cc1-2` registered a melting point of 272 °C.

`CC1c2cccc3c2N(CC3)c2ccccc2N1C(=O)CCN(C)C` (centres undefined) showed a melting point of 138 to 142 °C.

The compound `CCOC(=O)c1c(C)nc(Cl)c([N+](=O)[O-])c1NCCCN(C)C` registered a melting point of 20 °C.

Regarding `O=C(NCc1ccccn1)Nc1cc(NC(=O)c2ccccc2)ccn1`, the melting point is 222 to 223 °C.

As to `CCCCCNC(CCCCC)=C1C(=O)ON=C1C`, the melting point worked out at 36 °C.

Regarding `COc1ccc2c(c1)-c1c([nH]c3c1-c1cc(OC)ccc1CC3)CC2`, the melting point worked out at 206 °C.

`CC(C)(C)c1cc(Sc2n[nH]c(=S)s2)cc(C(C)(C)C)c1O` returned a melting point of 181 to 186 °C.

Consider `CCCCCCCCCCCCCCCCC(CO)OC` (centres undefined), for which the melting point was 36 to 38 °C.

Turning to `COc1ccc(N(S(=O)(=O)c2ccc(C)cc2)S(=O)(=O)c2ccc(C)cc2)c([N+](=O)[O-])c1`, the melting point was 180 to 182 °C.

The compound `Cc1nnc2n1-c1sc(CCC(=O)N3CCCCC3)cc1C(c1ccccc1Cl)=NC2C` (centres undefined) showed a melting point of 157 to 160 °C.

Take `O=C(O)c1ccccc1Sc1cc(Cl)ccc1C(=O)O`: the melting point was 241 to 242 °C.

Compound `Oc1ccc(-c2ncc3ncc(-c4ccc(C(F)(F)F)cc4)cc3n2)cc1` had a melting point of 203 to 204 °C.

For `CCN(CC)C(=O)C(C)N1C(=O)C(NC(=O)OCc2ccccc2)N=C(c2ccccc2)c2ccccc21` (centres undefined), the melting point was in the range of 170 to 171 °C.

As to `O=c1oc(-c2ccccc2)cc(O)c1Cc1cccnc1SCc1ccccc1`, the melting point lay within 103 to 106 °C.

In turn, `CCCCC(=N)NC(=O)Nc1ccc(Cl)cc1` came in with a melting point of 164 to 169 °C.

Compound `CCCc1c(OCCCCCC(=O)c2cc(C)c(OC)c(OC)c2C)ccc(C(=O)O)c1O` yielded a melting point of 92 to 94 °C.

`CCOc1cccc(C(=O)Nc2ccc(C(=O)N3CCCc4ccccc43)cc2)c1` gave a melting point of 170 to 172 °C.

In the case of `Clc1ccc2c(C=Cc3ccccc3)ccnc2c1`, the melting point fell in the range of 120 to 122 °C.

Compound `CCCCc1nn(-c2cc(NC(=O)CC)ccc2Cl)c(=O)n1Cc1ccc(-c2ccccc2S(=O)(=O)NC(=O)c2ccccc2Cl)cc1F` displayed a melting point of more than 152 °C.

Regarding `Cc1cc(Cl)nc(S(C)(=O)=O)n1`, the melting point came to 72 °C.

On to `O=[N+]([O-])c1ccc(-c2cc(C(F)(F)C(F)(F)C(F)(F)F)nc(-c3ccc(C(F)(F)F)cc3)n2)cc1`, for which the melting point stood at 191 °C.

As to `CC(C)(C)c1cc(CCc2ccccc2NC(=O)NCC(c2ccccc2)c2ccccc2)cc(C(C)(C)C)c1O`, the melting point was 179 °C.

Compound `CCSc1cc(C)nc(SCC)c1NC(=O)CCCSc1nc2c(C)c(Cl)cc(C(C)C)c2o1` yielded a melting point of 122 to 123 °C.

Take `O=C1NCCN1c1ccc(S(=O)(=O)Nc2ccc(Cl)cc2)cc1`: the melting point is 234 to 236 °C.

For `Cc1cccc(CC2CCN(C(=O)C(=O)Nc3ccc4[nH]c(=O)oc4c3)CC2)c1`, the melting point was 204 to 208 °C.

Compound `CCCCCN(Cc1ccc(-c2ccccc2S(=O)(=O)NC(C)(C)C)cc1)C(=O)Cl` had a melting point of 125 to 126 °C.

`O=C1C(c2cccc(Br)c2)n2cncc2CN1Cc1ccsc1` (centres undefined): the melting point is 43 to 45 °C.

Regarding `O=C(O)Cc1cn2ccccc2n1`, the melting point lay in the range of 205 to 208 °C.

`CN(c1cccc2cc(C3=NCC(CC(=O)N4CCC[C@H]4C(=O)O)S3)[nH]c12)S(=O)(=O)c1ccccc1C(F)(F)F` (some centres undefined) yielded a melting point of 132 to 135 °C.

`Cc1ccc(-c2ccc3c(c2)C=C(C(=O)OC(C)(C)C)CO3)cc1` yielded a melting point of 80 to 82 °C.

`N#Cc1cccc(Cn2cnc(C(N)=O)c2N)c1` had a melting point of 246 to 247 °C.

For the compound `CCCn1c(COCC)nc2c(N)nc3ccc(OCCCCCCNC(=O)C(C)C)cc3c21`, the melting point is 136 to 138 °C.

In turn, `CC(C)(C)c1cc2c(c(C(C)(C)C)c1)OC(=O)C2c1ccc(O)cc1` (centres undefined) had a melting point of 187 to 190 °C.

As to `Cc1ccc(S(=O)(=O)Oc2cc(C(C)(C)C)c(SC3=C(O)CC(CCc4ccc(O)cc4)(C4CCCCC4)OC3=O)cc2C)cc1` (centres undefined), the melting point came to 105 °C.

The compound `CCCCOc1ccccc1C1=NC(=O)C2=NC=NC2=N1` gave a melting point of 247 to 248 °C.

In the case of `COc1ccc(C2CCOCC2)c2sc(NC(=O)N(C)[C@H]3CC[C@H](O)CC3)nc12`, the melting point was 160 °C.

For `CC(C)=CCCC(C)CCOCC(=O)c1cc(C(C)C)c(O)c(C(C)C)c1` (centres undefined), the melting point lay within 37 to 39 °C.

`CC(C)c1cc(C(=O)CON2C(=O)c3ccccc3C2=O)cc(C(C)C)c1O` displayed a melting point of 136 to 139 °C.

In turn, `COc1cc(/C=C(\C(=O)NCCCCCC(=O)NO)c2ccc(F)cc2)cc(OC)c1` yielded a melting point of 104 to 105 °C.

In turn, `CCOC(=O)C(=CNC1CC1)C(=O)c1c(F)c(F)c(F)c(F)c1F` registered a melting point of 85 to 86 °C.

Compound `COc1ccccc1N1CCN(C(=O)N(C)c2nc3ccccc3nc2OC)CC1` yielded a melting point of 128 to 130 °C.

`CCCCc1nn(CC#N)c(=O)n1Cc1ccc(-c2ccccc2-c2nnn[nH]2)cc1` registered a melting point of 86 to 88 °C.

Turning to `O=C(O)CCc1cccc(C(O)(C(F)(F)F)C(F)(F)F)c1`, the melting point was in the range of 112 to 113 °C.

Compound `Nc1nc2ccccc2c2c1ncn2CCOCC#Cc1ccccc1` registered a melting point of 196 to 197 °C.

The compound `COC(=O)C(CSCc1ccc(OC)cc1)NC(=O)NCCCCC1CCSS1` (centres undefined) showed a melting point of 105 to 107 °C.

`CNc1cn(-c2cncnc2)nc1Cl` registered a melting point of 111 to 114 °C.

For the compound `CCCCCCCCCCCCCCCCC(COC(C)=O)(COC(C)=O)NC(C)=O`, the melting point was 84 to 86 °C.

As to `O=[N+]([O-])c1cc(Cl)c(Cl)c(Cl)c1Cl`, the melting point was 41 to 44 °C.

Regarding `CC(C)(C)[N+]([O-])=Cc1cc(Cl)ccc1O`, the melting point is 143 °C.

For the compound `CCC(CC)(NCCCn1cnc(CCNC(=O)c2ccc(C#N)cc2)c1)c1ccccc1`, the melting point is 107 to 109 °C.

In turn, `CCOC(=O)c1ccc(-n2ccc(=O)cc2)cc1` gave a melting point of 178 to 180 °C.

For the compound `COC(=O)c1cc(OCc2cc(SC)cc(SC)c2)cc(OCc2cc(SC)cc(SC)c2)c1`, the melting point fell in the range of 121 to 122 °C.

`CCc1cccc(CC)c1NC(=O)CC1c2ccccc2Oc2ccccc21` had a melting point of 228 to 230 °C.

The compound `CC(O)Cn1cnc2cnc3ccccc3c21` (centres undefined) displayed a melting point of 171 °C.

For the compound `Cc1cc(I)cc2c1oc(=O)n2C`, the melting point was in the range of 100 to 101 °C.
